This is an account of results in US20110305777A1, “DIMERIC IAP ANTAGONISTS” (Tetralogic Pharmaceuticals Corporation, priority 2006, published 2011).

One experiment deals with XIAP BIR-3 and cIAP-1 BIR-3 (lower Kd of the two reported). Description: Fluorescence polarization binding to IAP-BIR3 (competition with AbuRPF-K(5-Fam)-NH2). Conditions: Table 1; lower of the Kd for XIAP BIR-3 and cIAP-1 BIR-3. How it is done: The binding affinities of the compounds listed in Table 1 to an IAP were determined substantially as described by Nikolovska-Coleska, Z. et. al. (Analytical Biochemistry (2004), vol. 332:261-273) using a variety of fluorogenic substrates and is reported as a Kd value. Briefly, various concentrations of IAP antagonists were mixed with 5 nM fluorescently labeled peptide (AbuRPF-K(5-Fam)-NH2) and 40 nM of an IAP-BIR3 for 15 min at RT in […] of 0.1M Potassium Phosphate buffer, pH 7.5 containing […] bovine g-globulin. Following incubation, the polarization values (mP) were measured on a Victor2V using a 485 nm excitation filter and a 520 nm emission filter. IC50 values were determined from the plot using nonlinear least-squares analysis using GraphPad Prism. […] The reported Kd values are the lower of the Kd for XIAP BIR-3 and cIAP-1 BIR-3.
The following compound of the invention was also made and tested. The reported Kd value is the lower of the Kd for XIAP BIR-3 and cIAP-1 BIR-3.
Background: Fluorescence polarisation rises when a labelled molecule tumbles more slowly, as on binding a larger partner.
As usually defined, the Kd is a measure of binding affinity in units of concentration. The low end stands for higher affinity, the high end for lower affinity. On to `CNC(C)C(=O)NC(C(=O)N1CCC(O)C1Cc1c(-c2[nH]c3cc(F)ccc3c2CC2C(O)CCN2C(=O)C(NC(=O)C(C)NC)C(C)OC)[nH]c2cc(F)ccc12)C(C)OC` (centres unmarked) [A], for which the Kd was < 100 nM.
As for `CNC(CO)C(=O)NC(C(=O)N1CCC(O)C1Cc1c(-c2[nH]c3cc(F)ccc3c2CC2C(O)CCN2C(=O)C(NC(=O)C(CO)NC)C(C)OC)[nH]c2cc(F)ccc12)C(C)OC` (centres unmarked) [B], the Kd was < 100 nM.
The same measure, in the same setting: the same measure for `CNC(C)C(=O)NC(C(=O)N1CCC(O)C1Cc1c(-c2[nH]c3cc(F)ccc3c2CC2C(O)CCN2C(=O)C(NC(=O)C(C)NC)C(C)(C)C)[nH]c2cc(F)ccc12)C(C)(C)C` (centres unmarked) [C]: < 100 nM; for `CCC(NC)C(=O)NC(C(=O)N1CCC(O)C1Cc1c(-c2[nH]c3cc(F)ccc3c2CC2C(O)CCN2C(=O)C(NC(=O)C(CC)NC)C(C)(C)C)[nH]c2cc(F)ccc12)C(C)(C)C` (centres unmarked) [D]: < 100 nM; for `CCNC(C)C(=O)NC(C(=O)N1CCC(O)C1Cc1c(-c2[nH]c3cc(F)ccc3c2CC2C(O)CCN2C(=O)C(NC(=O)C(C)NCC)C(C)OC)[nH]c2cc(F)ccc12)C(C)OC` (centres unmarked) [E]: < 100 nM.
Still for that read-out and setting: the same measure for `CCC(NC)C(=O)NC(C(=O)N1CCC(O)C1Cc1c(-c2[nH]c3cc(F)ccc3c2CC2C(O)CCN2C(=O)C(NC(=O)C(CC)NC)C(C)OC)[nH]c2cc(F)ccc12)C(C)OC` (centres unmarked) [F]: < 100 nM; for `CNC(C)C(=O)NC(C(=O)N1CCC(OC)C1Cc1c(-c2[nH]c3cc(F)ccc3c2CC2C(OC)CCN2C(=O)C(NC(=O)C(C)NC)C(C)OC)[nH]c2cc(F)ccc12)C(C)OC` (centres unmarked) [G]: < 100 nM.
The same measure, in the same setting: the same measure for `CCC(NC)C(=O)NC(C(=O)N1CCC(OC)C1Cc1c(-c2[nH]c3cc(F)ccc3c2CC2C(OC)CCN2C(=O)C(NC(=O)C(CC)NC)C(C)OC)[nH]c2cc(F)ccc12)C(C)OC` (centres unmarked) [H]: < 100 nM.
On to `CNC(C)C(=O)NC(C(=O)N1CCC(OC)C1Cc1c(-c2[nH]c3cc(F)ccc3c2CC2C(OC)CCN2C(=O)C(NC(=O)C(C)NC)C(C)(C)C)[nH]c2cc(F)ccc12)C(C)(C)C` (centres unmarked) [I], for which the Kd was < 100 nM.
The same measure, in the same setting: the same measure for `CCC(NC)C(=O)NC(C(=O)N1CCC(OC)C1Cc1c(-c2[nH]c3cc(F)ccc3c2CC2C(OC)CCN2C(=O)C(NC(=O)C(CC)NC)C(C)(C)C)[nH]c2cc(F)ccc12)C(C)(C)C` (centres unmarked) [J]: 100 to 1000 nM; for `CCNC(C)C(=O)NC(C(=O)N1CCC(OC)C1Cc1c(-c2[nH]c3cc(F)ccc3c2CC2C(OC)CCN2C(=O)C(NC(=O)C(C)NCC)C(C)OC)[nH]c2cc(F)ccc12)C(C)OC` (centres unmarked) [K]: < 100 nM; for `CCNC(C)C(=O)NC(C(=O)N1CCC(OC)C1Cc1c(-c2[nH]c3cc(F)ccc3c2CC2C(OC)CCN2C(=O)C(NC(=O)C(C)NCC)C(C)(C)C)[nH]c2cc(F)ccc12)C(C)(C)C` (centres unmarked) [L]: < 100 nM.
On the same count and under the same terms, the same measure for `CNC(C)C(=O)NC(C(=O)N1CCC(C)C1Cc1c(-c2[nH]c3cc(F)ccc3c2CC2C(C)CCN2C(=O)C(NC(=O)C(C)NC)C(C)OC)[nH]c2cc(F)ccc12)C(C)OC` (centres unmarked) [M]: < 100 nM.

The experiment is the same for the next values; noted with them: Table 4; lower of the Kd for XIAP BIR-3 and cIAP-1 BIR-3.
`CNC(C)(C)C(=O)NC(C(=O)N1CC(O)CC1Cc1c(-c2[nH]c3cc(F)ccc3c2CC2CC(O)CN2C(=O)C(NC(=O)C(C)(C)NC)C(C)OC)[nH]c2cc(F)ccc12)C(C)OC` (centres unmarked) [N] showed a Kd of 100 to 1000 nM.
